According to patent publication US12037324B2, “Biarylmethyl heterocycles” (Université de Montréal, priority 2016, dated 2024):
Where two headings read alike, the source gives them in different places.

Legend:
AGTR1 [1] = target: T1, AGTR1 (Homo sapiens, UniProt P30556); assay: DiscoveRx IP1 accumulation assay (HTRF), agonist mode, Pathunter CHO-K1 AGTR1 β-arrestin cell line; assay type: cell-based; settings: for EC50: read-out: IP-1 EC50
T1 construct: host or cells: Pathunter CHO-K1 AGTR1 β-arrestin cell line (CHO-K1)
T1 sequence (P30556 1-359): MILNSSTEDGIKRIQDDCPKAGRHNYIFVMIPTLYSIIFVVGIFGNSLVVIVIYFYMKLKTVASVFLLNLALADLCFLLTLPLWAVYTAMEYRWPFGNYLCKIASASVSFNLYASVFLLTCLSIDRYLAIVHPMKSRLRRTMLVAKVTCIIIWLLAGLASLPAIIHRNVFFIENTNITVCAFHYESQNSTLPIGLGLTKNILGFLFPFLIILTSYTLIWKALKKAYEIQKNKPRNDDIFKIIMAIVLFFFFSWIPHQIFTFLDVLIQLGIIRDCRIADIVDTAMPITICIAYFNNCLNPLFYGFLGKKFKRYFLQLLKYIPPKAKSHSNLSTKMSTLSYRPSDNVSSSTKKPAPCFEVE
Procedure, shortened: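 Agonist mode in CHO-K1 AGTR1 β-arrestin cells plated 14-16 h before; compounds at varying concentrations for 90 min at 37° C, IP1 accumulation read by HTRF (D2-conjugate and anti-IP1 cryptate, 20 min room temperature). EC50 from 4-parameter logistic fit; activity given as percentage of maximal AII effect.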

AGTR1 [2] = target: T1, AGTR1; assay: DiscoveRx β-arrestin2 recruitment assay (enzyme complementation, Pathunter CHO-K1 AGTR1 β-arrestin cell line); assay type: cell-based; settings: DiscoveRx β-arrestin2 recruitment; for DiscoveRx β-arrestin2 Ymax (%): maximal response
Procedure, shortened: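 CHO-K1 cells expressing AGTR1 with β-arrestin2 enzyme-complementation reporter, plated 14-16 h ahead in 1% serum medium, then exposed to compounds for 90 min at 37° C. Chemiluminescence read after 1 h detection. EC50 (agonist) or IC50 (antagonist) from 4-parameter logistic fit; activity as percentage of All maximal effect.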

hAT1R [3] = target: T2, hAT1R (Homo sapiens, UniProt P30556); assay: cell-based; settings: agonist mode; for EC50: read-out: BRET P63 EC50
T2 sequence (P30556 1-359): T1 sequence (P30556 1-359)

hAT1R [4] = target: T2, hAT1R; assay: cell-based
[5] = section of the 42nd table ending at r951, example numbering restarts after the DiscoveRx section, read-out: β-arrestin2 EC50
[6] = Low AT1R Expression, read-out: BRET β-Arrestin2 Low AT1R Expression EC50

Compound	IP-1 Ymax (%) (AGTR1 [1])	EC50 (AGTR1 [1])	EC50 (AGTR1 [2])	DiscoveRx β-arrestin2 Ymax (%) (AGTR1 [2])	BRET P63 Ymax (hAT1R [3])	EC50 (hAT1R [3])	EC50 (hAT1R [4]; [5])	EC50 (hAT1R [4]; [6])	BRET β-Arrestin2 Low AT1R Expression Ymax (%) (hAT1R [4]; Low AT1R Expression)
CCCC1=NC2(CCOC2)C(=O)N1Cc1ccc(-c2cc(-c3ccccc3F)ccc2-c2nnn[nH]2)cc1 (single isomer, unassigned) [Example 161]	14.2%	203 nM	88.5 nM	40.7%	10.9%	49.6 nM	46.3 nM		
CCCC1=NC2(CCOC2)C(=O)N1Cc1ccc(-c2cc(-c3ccccc3)ccc2-c2nnn[nH]2)cc1 (single isomer, unassigned) [Example 162]	8.9%	235 nM	147 nM	31.9%		> 10000 nM	373 nM		
CCCC1=NC2(CCOC2)C(=O)N1Cc1ccc(-c2cc(-c3cccc(C)c3)ccc2-c2nnn[nH]2)cc1 (single isomer, unassigned) [Example 163]	7.8%	181 nM	69.2 nM	34.6%		> 10000 nM	91.8 nM		
CCCC1=NC2(CCOC2)C(=O)N1Cc1ccc(-c2cc(-c3ccccc3O)ccc2-c2nnn[nH]2)cc1 (single isomer, unassigned) [Example 164]	17.3%	231 nM	76 nM	58.7%	15.6%	106 nM	160 nM		
CCC1=NC2(CCOC2)C(=O)N1Cc1ccc(-c2cc(-c3ccccc3)ccc2-c2nn[nH]n2)cc1 (single isomer, unassigned) [Example 165]	17.7%	192 nM	56.8 nM	45.7%	14.1%	262 nM	281 nM		
CCC1=NC2(CCOC2)C(=O)N1Cc1ccc(-c2cc(-c3cccc(C)c3)ccc2-c2nnn[nH]2)cc1 (single isomer, unassigned) [Example 166]	14.8%	103 nM	23.1 nM	47.5%	22.7%	65 nM	64.5 nM		
CCC1=NC2(CCOC2)C(=O)N1Cc1ccc(-c2cc(-c3ccccc3O)ccc2-c2nnn[nH]2)cc1 (single isomer, unassigned) [Example 167]	32.4%	165 nM	36 nM	78.8%	32.0%	91.5 nM	58.3 nM		
CCC1=NC2(CCOC2)C(=O)N1Cc1ccc(-c2cc(-c3ccccc3)ccc2-c2nnn[nH]2)cc1 (single isomer, unassigned) [Example 168]	13.8%	826 nM	352 nM	34.5%		> 10000 nM	998 nM		
CCC1=NC2(CCOC2)C(=O)N1Cc1ccc(-c2cc(-c3cccc(C)c3)ccc2-c2nnn[nH]2)cc1 (single isomer, unassigned) [Example 169]	14.5%	484 nM	111 nM	50.1%	13.3%	127 nM	271 nM		
CCC1=NC2(CCOC2)C(=O)N1Cc1ccc(-c2cc(-c3ccccc3O)ccc2-c2nnn[nH]2)cc1 (single isomer, unassigned) [Example 170]	13.2%	469 nM	170 nM	63.4%	13.5%	633 nM	590 nM		
CCc1nc2c(C)cc(C)nc2n1Cc1ccc(-c2cc(-c3ccc(OC)cc3)ccc2-c2nn[nH]n2)cc1 [Example 14]	8.1%	14.5 nM	10.3 nM	20.8%		> 10000 nM		> 10000 nM	
CCc1nc2c(C)cc(C)nc2n1Cc1ccc(-c2cc(-c3cc(OC)ccn3)ccc2-c2nn[nH]n2)cc1 [Example 62, 2-Ethyl-3-((5′-(4-methoxypyridin-2-yl)-2′-(2H-tetrazol-5-yl)-[1,1′-biphenyl]-4-yl)methyl)-5,7-dimethyl-3H-imidazo[4,5-b]pyridine]	22.7%	29 nM	15.1 nM	50.0%	35.7%	4.2 nM		3.7 nM	74.7%
CCc1nc2c(C)cc(C)nc2n1Cc1ccc(-c2cc(-c3ccc(F)cn3)ccc2-c2nn[nH]n2)cc1 [Example 65]	12.2%	62.7 nM	27.3 nM	31.0%	13.1%	17.2 nM		23.6 nM	54.5%
CCc1nc2c(C)cc(C)nc2n1Cc1ccc(-c2cc(-c3cc(C)c(F)cn3)ccc2-c2nn[nH]n2)cc1 [Example 66]	6.9%	8.5 nM	5.8 nM	25.8%		> 10000 nM		16.6 nM	39.4%
CCc1nc2c(C)cc(C)nc2n1Cc1ccc(-c2cc(-c3cc(C(F)F)ccn3)ccc2-c2nn[nH]n2)cc1 [Example 67]	10.2%	26.5 nM	19.3 nM	30.9%	14.3%	7.3 nM		14.5 nM	40.7%
CCc1nc2c(C)cc(C)nc2n1Cc1ccc(-c2cc(C3CCCOC3)ccc2-c2nn[nH]n2)cc1 (centres unmarked) [Example 79]	9.4%	499 nM	286 nM	31.7%		> 10000 nM		464 nM	21.1%
CCc1nc2c(C)cc(C)nc2n1Cc1ccc(-c2cc(C3CCCC3)ccc2-c2nn[nH]n2)cc1 [Example 80, 3-((5′-cyclopentyl-2′-(2H-tetrazol-5-yl)-[1,1′-biphenyl]-4-yl)methyl)-2-ethyl-5,7-dimethyl-3H-imidazo[4,5-b]pyridine]	14.6%	425 nM	73.4 nM	33.5%		> 100000 nM		30.4 nM	29.8%
CCc1nc2c(C)cc(C)nc2n1Cc1ccc(-c2cc(C3CCCCCC3)ccc2-c2nn[nH]n2)cc1 [Example 81]		> 100000 nM	38.3 nM	17.6%		> 100000 nM		38.3 nM	16.3%
CCc1nc2c(C)cc(C)nc2n1Cc1ccc(-c2cc(N3CCCCC3)ccc2-c2nn[nH]n2)cc1 [Example 91]		> 100000 nM	60.6 nM	22.6%		> 100000 nM		> 10000 nM	
CC1=NC2(CCCC2)C(=O)N1Cc1ccc(-c2cc(-c3ccccc3)ccc2-c2nn[nH]n2)cc1 [Example 110, 3-((6′-(2H-tetrazol-5-yl)-[1,1′:3′,1″-terphenyl]-4-yl)methyl)-2-methyl-1,3-diazaspiro[4.4]non-1-en-4-one]	9.0%	108 nM	35.9 nM	26.9%		> 100000 nM		95.5 nM	22.1%
CC1=NC2(CCCC2)C(=O)N1Cc1ccc(-c2cc(-c3cc(C)ccn3)ccc2-c2nn[nH]n2)cc1 [Example 111, 2-methyl-3-((5′-(4-methylpyridin-2-yl)-2′-(2H-tetrazol-5-yl)-[1,1′-biphenyl]-4-yl)methyl)-1,3-diazaspiro[4.4]non-1-en-4-one]	15.7%	12.6 nM	6.4 nM	63.3%	24.1%	22.3 nM		14.7 nM	80.7%
CCC1=NC2(CCCC2)C(=O)N1Cc1ccc(-c2cc(-c3cc(C)ccn3)ccc2-c2nn[nH]n2)cc1 [Example 113]	17.8%	83.5 nM	14.9 nM	66.3%	28.6%	17.2 nM		9.8 nM	88.6%
